{"source": "paper PMC3929365", "about": "“Benzimidazoisoquinolines: A New Class of Rapidly Metabolized Aryl Hydrocarbon Receptor (AhR) Ligands that Induce AhR-Dependent Tregs and Prevent Murine Graft-Versus-Host Disease” (PLoS ONE, 2014)", "key": {"[1]": {"system": "donor CD4+ T cells", "experiment": "AhR-Treg phenotype of alloactivated donor CD4+ T cells 48 h after initiating the GVH response", "type": "in vivo, B6D2F1 host mice", "description": "Splenocytes and lymphocytes were harvested from C57Bl/6 mice. In some experiments, T cells were purified by negative selection using a Pan-T kit (Miltenyi Biotec) and stained with 2 µM carboxyfluorescein succinimidyl ester (CFSE) (Life Technologies). At least 2×10^7 purified T cells or approximately 1×10^8 pooled splenocytes and lymphocytes were injected i.v. into B6D2F1 host mice to initiate the GVH response. GVHD pathology was assessed on a scale of 0 to 3 (0 = normal, 1 = moderate morbidity, 2 = severe morbidity, 3 = death) according to the following five criteria: weight-loss, posture, activity, fur texture and death and reported as a Clinical GVHD Score.\nHost mice were treated daily with vehicle, 10-Cl-BBQ or BBQ analogues by i.p. injection. The vehicle consisted of a mixture of 6.7% anisole and peanut oil. Mice treated with a single i.p. dose of 15 µg TCDD/kg body weight in the same vehicle were used as positive controls.\nAntibodies to CTLA-4, Foxp3, ICOS, CD62L, CD25, CD19, CD44) and a fixable viability dye were purchased from eBiosciences. Additional antibody reagents included CD4 and CD8 (Life Technologies); H-2D^d (Biolegend) and CD45RB (PharMingen). After surface staining, the cells were fixed and permeabilized with Cytofix/cytoperm (BD Biosciences) for intracellular CTLA-4 stain. The flow cytometry data were acquired on an FC500 instrument (Beckman Coulter) and the data were analyzed using WinList 7.0 (Verity Software House). Fluorescence minus one (FMO) controls were used for setting histogram gates during the analysis.\nFigure 3 10-Cl-BBQ induces an AhR-dependent Treg phenotype 48 h after initiating the GVH response. On day 0, B6D2F1 host mice in groups of 5 were injected with CFSE-labeled C57Bl/6 T cells and given 15 mg/kg 10-Cl-BBQ, 15 µg/kg TCDD or vehicle by i.p. injection. At 24 h, an additional dose of 7 mg/kg 10-Cl-BBQ or vehicle was given. […] Treatment mean ± SEM is shown in the quadrant of interest. […] C) AhR-dependent induction of the donor Treg phenotype by 10-Cl-BBQ. On day 0, B6D2F1 host mice in groups of 5 were injected with donor T cells obtained from AhR^+/+ or AhR^−/− C57Bl/6 mice. Host mice were treated with 2 mg/kg10-Cl-BBQ or vehicle immediately following donor cell transfer and again at 24 hr. […] D) Dose-dependent induction of Treg phenotype by 10-Cl-BBQ. On day 0, B6D2F1 host mice in groups of 3–5 were injected with C57Bl/6 T cells. Mice were immediately treated with 0, 0.4, 2 or 10 mg/kg 10-Cl-BBQ and again on day 1. On day 2, expression of markers associated with the AhR-Treg phenotype increased as the dose of 10-Cl-BBQ increased. E) In the same mice as in D, lymph nodes were harvested and analyzed for expression of genes that were previously shown to increase under the same GVH conditions with TCDD treatment (13). […] Changes in gene expression were calculated relative to the β-actin gene, and the fold-induction was calculated by the ΔΔCt method using the vehicle-treated samples as a control. * = p<0.05 relative to vehicle treatment. […]"}, "[2]": {"system": "activated T cells", "experiment": "T cell proliferation in vitro (CFSE dilution, anti-CD3/anti-CD28)", "type": "cell-based, C57Bl/6 mice", "details": "100 nM, 72 h, anti-CD3 and anti-CD28", "description": "A. Splenocytes from C57Bl/6 mice were labeled with CFSE and activated in vitro with anti-CD3 and anti-CD28 in the presence of 100 nM 10-Cl-BBQ or DMSO for 72 h. B. C57Bl/6 donor T cells were labeled with CFSE and injected into B6D2F1 host mice to initiate the GVH response. Host mice (n = 5 per group) were treated with vehicle or 10-Cl-BBQ i.p. (10 mg/kg/d) for two days. Donor cells were identified by gating on CD4^+CFSE^+ cells. […] (TIF) Click here for additional data file."}, "[3]": {"system": "AhR", "experiment": "Subtilisin proteolysis pattern of AhR in Hepa1c1c7 whole cell lysate", "type": "biochemical, mouse", "details": "100 nM, 1 h, 1 µg/ml subtilisin", "description": "Figure 1 10-Cl-BBQ is a potent AhR ligand. A) Structure of 10-Cl-BBQ. […] C) Hepa-1 cells expressing endogenous AhR were transfected with an AhR-regulated luciferase reporter gene (xenobiotic responsive element (XRE)-MMTVpromoter-Luc) and the reporter gene activity was measured after 12 h of treatment with 1 nM TCDD or the indicated concentrations of 10-Cl-BBQ. D) Alteration in proteolytic pattern of AhR by 10-Cl-BBQ. Whole cell lysate (45 µg of protein) from mouse hepatoma Hepa1c1c7 cells was incubated with 100 nM 10-Cl-BBQ or 0.1% DMSO for 1 h at RT and proteolyzed by 1 µg/ml subtilisin for 1, 2, 4, and 8 min at RT. Proteolytic cleavage products of AhR were analyzed by immunoblot. E) Electrophoretic mobility shift assay showing the ligand-stimulated binding of AhR to XRE. Whole cell lysate (18 µg of protein) from mouse hepatoma Hepa1c1c7 cells was incubated with 10 nM 10-Cl-BBQ or 0.1% DMSO for 2 h at room temperature and ^32P-labeled oligonucleotide containing XRE for 20 min at room temperature. The samples were electrophoresed on a native polyacrylamide gel and the signal was visualized by Phosphor Imager. Unlabeled competitor XRE or antibody (Ab) against AhR or Arnt was co-incubated with ^32P-labeled oligonucleotide."}, "[4]": {"system": "AhR", "quoted_text": "The AhR reporter gene assay was performed as previously described (20–22).\nB) Hepa1 cells expressing endogenous AhR were transfected with a XRE-luciferase reporter gene. […] The mean luciferase activity is shown with SEM. C) Dose response curves for the competitive inhibition of [^3H] 3-MC binding to AhR.\n3-methylcholanthrene (3-MC) to AhR (Fig. 5C)."}}}
{"smiles": "O=c1c2cccc3cccc(c32)c2nc3ccc(Cl)cc3n12", "note": "[10-Cl-BBQ, 10-chloro-7H-benzimidazo[2,1-a]benzo[de]isoquinolin-7-one]", "values": [{"measurement": "changes in parameters associated with AhR-Tregs", "setting": "[1]; 0.4 mg/kg/day for two days", "result": "failed to induce significant changes"}, {"measurement": "induction of the Treg phenotype with AhR-deficient donor T cells", "setting": "[1]; AhR−/− donor T cells, 2 mg/kg at 0 and 24 hr, day 2", "result": "failed to induce the Treg phenotype"}, {"measurement": "minimum effective dose to induce Tregs", "setting": "[1]; i.p. for two days after initiation of the GVH response", "result": 2.0, "unit": "mg/kg/day"}, {"measurement": "proliferation of activated T cells in vitro", "setting": "[2]", "result": "did not inhibit proliferation"}, {"measurement": "proteolysis of AhR", "setting": "[3]", "result": "delayed its proteolysis"}, {"measurement": "IC50", "setting": "[4]", "result": 2.6, "unit": "nM"}]}
